From patent US9949980B2, “Drugs to prevent HPV infection” (Wisconsin Alumni Research Foundation, priority 2008, dated 2018)
“Also recorded” adds a separate entry of the source. Like-named read-outs stand apart in the source and are kept apart here.

What was measured:
HPV16 pseudovirus [1] = test: Luciferase assay: HPV16 pseudovirus with renilla luciferase reporter (HPV16wpA-RL); settings: renilla luciferase reporter behind HPV16 promoter
Method: (§1) The protocol for the secondary screen was identical to that of the primary screen with the exception that all volumes were scaled up by a factor of four. RL activity was measured using the Renilla Luciferase Assay System (Promega).

HPV16 virus = test: Wild type HPV16 infection in 293T cells, early viral gene expression by real time PCR; format: cell-based; settings: 5 to 10 μM (FIG. 3: 10 μM), 48 hours post infection
Method: FIG. 3. Inhibition of infection by HPV 16 virus. Shown is the relative efficiency of infection by HPV16 virus in 293T cells as scored by quantifying early viral transcription using real time PCR for E2 (dark grey bars), E5 (white bars) and E7 (light grey bars) containing mRNAs at 48 hours post-infection in the absence (DMSO—vehicle only, values set at 100%) or the presence of the indicated compound (10 μM concentration). Data points shown are the average of triplicate sample values. The dotted line indicates the normalized value for no drug (set as 100% infection value).
The 21 selected compounds were also tested for their ability to inhibit infection by bonafide HPV16 in 293T cells by measuring early viral gene expression by real time PCR at 48 hours post infection (FIG. 3) after treatment of the cell with 5 to 10 μM of each compound. Consistently with the data of reporter gene assays, HPV early gene expression was inhibited by Compounds 4, 13, 14, 18 and 20. Given the large differences in IC50 and CD50, and the reproducible capacity to inhibit infection by HPV16 pseudovirus and HPV16 virus in different cell types, Compounds 13 and 14 were selected for further analysis.
After 2 day infection, total RNA was isolated from infected cell lysate and treated with DNase I (Promega) as previously. (Pyeon, D. et al., Establishment of human papillomavirus infection requires cell cycle progression, PLos Pathog. 2009 February; 5(2):e1000318. Epub 2009 Feb. 27). Complementary DNA (cDNA) was synthesized from the normalized total RNA with the SuperScript cDNA synthesis kit (Invitrogen). All oligonucleotide primers (0.5 μM) for PCR are previously published (Pyeon D. et al., Production of infectious human papillomavirus independently of viral replication and epithelial cell differentiation, Proc. Nat'l Acad. Sci. USA, 2005 Jun. 28; 102(26):9311-6, Epub 2005 Jun. 15) or listed in Table 2.
Conventional PCR was performed with Taq DNA polymerase (Promega) and the following cycle: denaturation at 94° C. for 5 min, 42 cycles of 94° C. for 30 sec., 55° C. for 1 min., and 72° C. for 1 min., followed by extension at 72° C. for 7 min. Final products were analyzed by 1% agarose gel electrophoresis and ethidium bromide staining. Quantitative RT-PCR was performed using QuantiTect SYBR green PCR kit (Qiagen) with the following cycle: denaturation at 95° C. for 5 min. and 40 cycles of 95° C. for 30 sec., 55° C. for 30 sec., and 72° C. for 30 sec.

in vitro [2] = settings: human
HPV16 pseudovirus [3] = test: microbe, parasite or virus in culture; format: cell-based; settings: HaCaT, HPV16 pseudovirus
Text: FIG. 2. Dose dependence inhibition of HPV16 pseudovirus infection in a human keratinocyte cell line (HaCaT). Graphed are the dose-dependent effects of lead compounds shown in Table 2 on the efficiency of infection by HPV16 pseudovirus scored by measuring luciferase reporter activity (squares) as well as their effects on cell viability (circles).
All but one of these compounds (6 is […]) were repurchased and subjected to a tertiary screen performed in the human keratinocyte cell line, HaCaT, and using HPV16 pseudoviruses encoding a third reporter gene, firefly luciferase, transcribed from a different, E1a, promoter.
The infectivity assay was repeated at least twice and each assay was performed in replicate (n≥3).
At 4 hours prior to exposure of cell to pseudoviruses, compounds were added to plates in 1% DMSO final concentration at the indicated amounts. Four hours later, 10 multiplicity of infection (M.O.I.) units of HPV16 pseudovirus carrying the plasmid LucF was added to the cells. 72 hours later, cells were lysed and luciferase assays performed using the Luciferase Assay System (Promega Cat. #E1501). For infection studies with HPV11 and HPV31 pseudoviruses, 200 virus genome equivalents (vge) of virus per cell were used. Cell viability was assessed in parallel plates by Luminescent Cell Viability Assay (Promega Cat. #G7571).

HPV16 pseudoviruses = test: microbe, parasite or virus in culture; format: cell-based; settings: for activity at 3 µM: Human papillomavirus 16, HEK-293T, 48 h
In short: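 Viability was read by CellTiter Glo luminescence on the same wells used for the SEAP infection read-out, after 48 hrs further incubation.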

in vitro [4] = settings: human; remark: listed apart in the source
Method: as §1

in vitro [5] = settings: human; remark: listed apart in the source
293T cells = test: Primary HTS: cell viability (CellTiter Glo) in parallel on the same wells; settings: 3 μM HTS standard concentration, 293T cells
[6] = Primary HTS Viability % Average
[7] = read-out: Infectivity (SEAP Activity), 3 μM HTS standard concentration, 293T cells, 48 hrs
[8] = read-out: Infectivity vs. viability, 3 μM HTS standard concentration, ratio infectivity/viability
[9] = read-out: Primary HTS SEAP vs Viability, Table 2, first pair of columns (c2)
[10] = read-out: Primary HTS SEAP vs Viability, Table 2, second pair of columns (c4)

Molecule | Luciferase assay RL % Average (HPV16 pseudovirus [1]) [%] | Inhibition of HPV16 early gene expression (E2, E5, E7 mRNAs) (HPV16 virus) | viability at 52 h, 3 μM (in vitro [2]; [6]) [%] | viability at 52 h, 3 μM (in vitro [2]; Viability (CelTiter Glow)) [%] | Effect on infection and cytotoxicity, assayed independently (HPV16 pseudovirus [3]) | activity at 3 µM (HPV16 pseudoviruses; [7]) [%] | activity at 3 µM (HPV16 pseudoviruses; [8]) [%] | activity at 3 µM (HPV16 pseudoviruses; [9]) [%] | activity at 3 µM (HPV16 pseudoviruses; [10]) [%] | viability at 52 h, 3.3 μM (in vitro [4]) [%] | viability at 52 h, 3.3 μM (in vitro [5]) [%] | Viability (CelTiter Glow) (293T cells) [%] | Infectivity (SEAP Activity) (HPV16 pseudoviruses; 3 μM HTS standard concentration, 293T cells, 48 hrs) [%] | Infectivity vs. viability (HPV16 pseudoviruses; 3 μM HTS standard concentration, ratio infectivity/viability) [%]
NNC(=O)c1cc(COc2cc(Cl)cc(Cl)c2)on1 [Compound 4, 5-[(3,5-dichlorophenoxy)methyl]-1,2-oxazole-3-carbohydrazide] | 68.26 | reproducible and significant inhibition; also recorded: inhibited | 94.5 | 90.4 | inhibit infection but also to cause cytotoxicity at similar doses | 22.6 | 25 | 18.3 | 26.9 |  |  |  |  | 
COc1ccc(C(O)(CNCc2ccccc2)c2ccc(Br)cc2)cc1 (centres unmarked) [Compound 9, 2-(benzylamino)-1-(4-bromophenyl)-1-(4-methoxyphenyl)ethanol] | 71.67 |  | 101 | 105 |  | 29.9 | 28.4 | 16.5 | 43.4 | 99 | 102 |  |  | 
COC(=O)C1=C(C)NC2=C(C(=O)c3ccccc32)C1c1cc2c(cc1Br)OCO2 (centres unmarked) [Compound 11, methyl 4-(6-bromo-1,3-benzodioxol-5-yl)-2-methyl-5-oxo-4,5-dihydro-1H-indeno[1,2-b]pyridine-3-carboxylate] | 95.56 |  |  | 130 |  | 19.1 | 14.7 | 17.7 | 20.4 | 95.7 | 97.3 |  |  | 
CCOc1ccc(C(=O)Nc2ccc3oc(-c4ccccc4Br)nc3c2)cc1 [Compound 15, N-[2-(2-bromophenyl)-1,3-benzoxazol-5-yl]-4-ethoxybenzamide] | 102.39 |  | 89.5 | 93.8 |  | 26.4 | 28.1 | 11.1 | 41.6 | 97.7 | 95.7 |  |  | 
O=C1NC(=S)SC1=Cc1cc(Br)ccc1OCc1ccccc1Cl [Compound 18, 5-{5-bromo-2-[(2-chlorobenzyl)oxy]benzylidene}-2-thioxo-1,3-thiazolidin-4-one] | 112.63 | reproducible and significant inhibition; also recorded: inhibited | 87.8 | 95.4 |  | 24.2 | 25.4 | 27.2 | 21.2 |  |  |  |  | 
FC(F)(F)c1cnc2c(c1)nc(S)n2-c1ccc(Cl)cc1 [Compound 20, 3-(4-chlorophenyl)-6-(trifluoromethyl)-3H-imidazo[4,5-b]pyridine-2-thiol] | 109.22 | reproducible and significant inhibition; also recorded: inhibited | 95.8 | 99.1 |  | 21.4 | 21.6 | 20.9 | 21.9 |  |  |  |  | 
Cc1ccc(C2Nc3ccccc3NC3=C2C(=O)CC(c2ccccc2)C3)s1 (centres unmarked) [Compound 22, 11-(5-methyl-2-thienyl)-3-phenyl-2,3,4,5,10,11-hexahydro-1H-dibenzo[b,e][1,4]diazepin-1-one] | 44.37 |  |  | 105 |  | 44.1 | 41.9 | 45.2 | 43 | 97.3 | 93.7 |  |  | 
-[(3-fluorophenypamino]-3-methylpyrido[1,2-a]benzimidazole-4-carbonitrile [Compound 5873417] |  |  |  |  |  |  |  |  |  |  |  | 101.39 | 46.16 | 45.53
